Measurements from ChEMBL document CHEMBL4732086, “Targeting nuclear protein TDP-43 by cell division cycle kinase 7 inhibitors: A new therapeutic approach for amyotrophic lateral sclerosis” (Eur J Med Chem, 2021).
The source made the active and inactive calls. No cut-off for these calls is given here.

What was measured:
[1] = target: RAC-alpha serine/threonine-protein kinase (Homo sapiens) (UniProt P31749); assay: Inhibition of recombinant full length human His-tagged AKT1 using serine/threonine-06 peptide as substrate at 10 uM incubated for 60 mins in presence of ATP by Z'-LYTE assay
Homo sapiens = organism: Homo sapiens; assay: Inhibition of recombinant full length human His-tagged CDK1/CyclinB expressed in baculovirus expression system using serine/threonine-18 peptide as substrate at 10 uM incubated for 60 mins in presence of ATP by Z'-LYTE assay
[2] = target: CDK2/Cyclin A2 (Homo sapiens) (UniProt P24941+P20248); assay: Inhibition of recombinant full length human His-tagged CDK2/Cyclin A expressed in baculovirus expression system using serine/threonine-12 peptide as substrate at 10 uM incubated for 60 mins in presence of ATP by Z'-LYTE assay
[3] = target: Cyclin-dependent kinase 5/CDK5 activator 1 (Homo sapiens) (UniProt Q00535+Q15078); assay: Inhibition of recombinant full length human GST/His-tagged CDK5/p25 expressed in baculovirus expression system using serine/threonine-12 peptide as substrate at 10 uM incubated for 60 mins in presence of ATP by Z'-LYTE assay
[4] = target: T1, Serine/threonine-protein kinase Chk1 (Homo sapiens) (UniProt O14757); assay: Inhibition of human CHK1 using serine/threonine-07 peptide as substrate at 10 uM incubated for 60 mins in presence of ATP by Z'-LYTE assay
T1 sequence (whole entry): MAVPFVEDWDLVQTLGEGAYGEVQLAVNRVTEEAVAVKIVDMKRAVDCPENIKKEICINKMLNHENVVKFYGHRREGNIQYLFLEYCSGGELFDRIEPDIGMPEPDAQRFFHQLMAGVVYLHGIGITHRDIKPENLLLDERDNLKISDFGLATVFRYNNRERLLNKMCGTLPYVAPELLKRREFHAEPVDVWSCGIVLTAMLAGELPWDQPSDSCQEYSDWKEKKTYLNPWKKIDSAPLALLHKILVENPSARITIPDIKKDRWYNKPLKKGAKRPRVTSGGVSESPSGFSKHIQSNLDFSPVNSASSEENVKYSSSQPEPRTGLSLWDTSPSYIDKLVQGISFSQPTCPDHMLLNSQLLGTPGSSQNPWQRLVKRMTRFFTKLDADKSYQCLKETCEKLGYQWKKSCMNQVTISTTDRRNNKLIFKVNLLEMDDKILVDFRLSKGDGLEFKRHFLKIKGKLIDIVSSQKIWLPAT

[5] = target: Casein kinase II subunit alpha (Homo sapiens) (UniProt P68400); assay: Inhibition of recombinant human full length His-tagged CSNK2A1 expressed in baculovirus expression system using serine/threonine-11 peptide as substrate at 10 uM incubated for 60 mins in presence of ATP by Z'-LYTE assay
[6] = target: Dual specificity tyrosine-phosphorylation-regulated kinase 1B (Homo sapiens) (UniProt Q9Y463); assay: Inhibition of recombinant human full length GST-tagged DYRK1B expressed in baculovirus expression system using serine/threonine-18 peptide as substrate at 10 uM incubated for 60 mins in presence of ATP by Z'-LYTE assay
[7] = target: T2, Dual specificity tyrosine-phosphorylation-regulated kinase 3 (Homo sapiens) (UniProt O43781); assay: Inhibition of recombinant human full length GST-tagged DYRK3 expressed in baculovirus expression system using serine/threonine-18 peptide as substrate at 10 uM incubated for 60 mins in presence of ATP by Z'-LYTE assay
T2 sequence (whole entry): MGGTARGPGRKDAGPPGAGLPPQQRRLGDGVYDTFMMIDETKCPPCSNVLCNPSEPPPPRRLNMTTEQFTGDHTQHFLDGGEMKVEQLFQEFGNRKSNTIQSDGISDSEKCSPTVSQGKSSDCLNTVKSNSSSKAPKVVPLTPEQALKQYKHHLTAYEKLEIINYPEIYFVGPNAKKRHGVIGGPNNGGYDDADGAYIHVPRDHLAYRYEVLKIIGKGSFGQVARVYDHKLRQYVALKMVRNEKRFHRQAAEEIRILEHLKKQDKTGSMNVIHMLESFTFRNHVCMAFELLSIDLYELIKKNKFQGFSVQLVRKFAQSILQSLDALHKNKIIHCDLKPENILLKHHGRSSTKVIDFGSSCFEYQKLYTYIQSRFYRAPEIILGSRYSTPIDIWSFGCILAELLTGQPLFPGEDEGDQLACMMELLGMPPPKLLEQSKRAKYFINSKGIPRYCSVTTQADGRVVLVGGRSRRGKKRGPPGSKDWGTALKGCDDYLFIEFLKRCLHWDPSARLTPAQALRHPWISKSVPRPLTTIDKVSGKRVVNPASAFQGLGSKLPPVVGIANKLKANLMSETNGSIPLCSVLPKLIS

[8] = target: Tyrosine-protein kinase Fyn (Homo sapiens) (UniProt P06241); assay: Inhibition of recombinant human His-tagged Fyn expressed in baculovirus expression system using Tyr 02 peptide as substrate at 10 uM incubated for 60 mins in presence of ATP by Z'-LYTE assay
[9] = target: Glycogen synthase kinase-3 beta (Homo sapiens) (UniProt P49841); assay: Inhibition of recombinant human full length His-tagged GSK3B expressed in baculovirus expression system using serine/threonine-09 peptide as substrate at 10 uM incubated for 60 mins in presence of ATP by Z'-LYTE assay
[10] = target: Homeodomain-interacting protein kinase 1 (Homo sapiens) (UniProt Q86Z02); assay: Inhibition of recombinant human full length GST-tagged HIPK1 expressed in baculovirus expression system using serine/threonine-09 peptide as substrate at 10 uM incubated for 60 mins in presence of ATP by Z'-LYTE assay
[11] = target: Serine/threonine-protein kinase pim-3 (Homo sapiens) (UniProt Q86V86); assay: Inhibition of recombinant human GST-tagged PIM3 expressed in baculovirus expression system using serine/threonine-07 peptide as substrate at 10 uM by Z'-LYTE assay; conditions: time 60.0 min
[12] = target: cAMP-dependent protein kinase catalytic subunit alpha (Homo sapiens) (UniProt P17612); assay: Inhibition of recombinant human His-tagged PRKACA expressed in Escherichia coli expression system using serine/threonine-01 peptide as substrate at 10 uM by Z'-LYTE assay; conditions: time 60.0 min
[13] = target: Cell division cycle 7-related protein kinase (Homo sapiens) (UniProt O00311); assay: Inhibition of human CDC7 in human SH-SY5Y cells assessed as prevention of ethacrynic acid-induced cell death preincubated for 1 hr followed by incubation with ethacrynic acid for 24 hrs measured at 10 uM by MTT assay relative to control; assay type: cell-based
SH-SY5Y [14] = assay: Neuroprotective activity in human SH-SY5Y cells assessed as decrease in ethacrynic acid-induced TDP-43 phosphorylation preincubated for 1 hr followed by incubation with ethacrynic acid for 24 hrs measured at 10 uM by Western blot assay; assay type: functional, cell-based
SH-SY5Y [15] = assay: Neuroprotective activity in human SH-SY5Y cells assessed by effect on TDP-43 levels preincubated for 1 hr followed by incubation with ethacrynic acid for 24 hrs measured at 10 uM by Western blot assay; assay type: functional, cell-based

Chain of Tyrosine-protein kinase Fyn (Homo sapiens) (P06241 2-537 limits assumed): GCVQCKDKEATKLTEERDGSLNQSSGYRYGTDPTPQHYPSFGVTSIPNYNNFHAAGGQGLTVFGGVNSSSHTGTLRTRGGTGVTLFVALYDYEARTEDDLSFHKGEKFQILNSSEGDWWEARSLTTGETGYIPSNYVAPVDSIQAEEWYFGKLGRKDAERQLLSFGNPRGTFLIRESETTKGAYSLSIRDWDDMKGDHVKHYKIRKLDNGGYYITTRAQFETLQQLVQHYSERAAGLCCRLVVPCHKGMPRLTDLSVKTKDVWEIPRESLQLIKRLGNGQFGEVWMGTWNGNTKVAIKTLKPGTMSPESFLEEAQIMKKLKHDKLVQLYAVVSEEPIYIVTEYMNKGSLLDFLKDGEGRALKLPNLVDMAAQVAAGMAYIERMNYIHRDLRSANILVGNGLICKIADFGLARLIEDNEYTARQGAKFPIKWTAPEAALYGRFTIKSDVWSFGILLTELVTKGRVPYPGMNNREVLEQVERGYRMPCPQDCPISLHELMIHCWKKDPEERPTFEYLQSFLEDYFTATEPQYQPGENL
Chain of Casein kinase II subunit alpha (Homo sapiens) (P68400 whole entry, looked up): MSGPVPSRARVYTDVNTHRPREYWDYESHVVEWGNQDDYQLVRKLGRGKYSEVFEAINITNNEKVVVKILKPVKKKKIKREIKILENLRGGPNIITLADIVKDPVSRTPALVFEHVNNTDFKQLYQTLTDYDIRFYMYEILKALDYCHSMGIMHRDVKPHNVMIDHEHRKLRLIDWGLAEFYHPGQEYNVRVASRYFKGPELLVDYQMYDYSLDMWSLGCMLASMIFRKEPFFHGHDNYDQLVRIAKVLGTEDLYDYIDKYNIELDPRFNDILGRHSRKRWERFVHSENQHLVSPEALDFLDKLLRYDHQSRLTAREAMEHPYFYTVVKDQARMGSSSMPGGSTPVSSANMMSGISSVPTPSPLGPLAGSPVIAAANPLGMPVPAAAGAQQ
Chain of Dual specificity tyrosine-phosphorylation-regulated kinase 1B (Homo sapiens) (Q9Y463 whole entry, looked up): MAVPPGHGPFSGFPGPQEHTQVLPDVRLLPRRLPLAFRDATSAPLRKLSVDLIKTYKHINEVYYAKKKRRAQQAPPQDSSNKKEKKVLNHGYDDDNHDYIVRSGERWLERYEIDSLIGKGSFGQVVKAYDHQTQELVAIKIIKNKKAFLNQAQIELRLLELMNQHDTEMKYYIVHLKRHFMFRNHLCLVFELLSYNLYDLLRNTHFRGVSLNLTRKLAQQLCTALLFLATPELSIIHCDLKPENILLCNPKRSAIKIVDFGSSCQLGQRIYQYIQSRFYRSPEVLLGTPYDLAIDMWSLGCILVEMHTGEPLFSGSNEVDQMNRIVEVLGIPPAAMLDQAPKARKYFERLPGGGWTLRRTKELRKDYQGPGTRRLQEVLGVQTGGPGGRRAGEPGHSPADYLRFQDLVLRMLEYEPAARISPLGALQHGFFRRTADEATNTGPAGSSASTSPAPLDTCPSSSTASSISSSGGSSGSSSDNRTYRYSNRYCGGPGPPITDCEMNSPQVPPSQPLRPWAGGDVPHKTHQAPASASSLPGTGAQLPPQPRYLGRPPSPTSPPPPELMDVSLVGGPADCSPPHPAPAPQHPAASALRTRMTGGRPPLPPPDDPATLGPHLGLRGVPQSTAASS
Chain of Cell division cycle 7-related protein kinase (Homo sapiens) (O00311 whole entry, looked up): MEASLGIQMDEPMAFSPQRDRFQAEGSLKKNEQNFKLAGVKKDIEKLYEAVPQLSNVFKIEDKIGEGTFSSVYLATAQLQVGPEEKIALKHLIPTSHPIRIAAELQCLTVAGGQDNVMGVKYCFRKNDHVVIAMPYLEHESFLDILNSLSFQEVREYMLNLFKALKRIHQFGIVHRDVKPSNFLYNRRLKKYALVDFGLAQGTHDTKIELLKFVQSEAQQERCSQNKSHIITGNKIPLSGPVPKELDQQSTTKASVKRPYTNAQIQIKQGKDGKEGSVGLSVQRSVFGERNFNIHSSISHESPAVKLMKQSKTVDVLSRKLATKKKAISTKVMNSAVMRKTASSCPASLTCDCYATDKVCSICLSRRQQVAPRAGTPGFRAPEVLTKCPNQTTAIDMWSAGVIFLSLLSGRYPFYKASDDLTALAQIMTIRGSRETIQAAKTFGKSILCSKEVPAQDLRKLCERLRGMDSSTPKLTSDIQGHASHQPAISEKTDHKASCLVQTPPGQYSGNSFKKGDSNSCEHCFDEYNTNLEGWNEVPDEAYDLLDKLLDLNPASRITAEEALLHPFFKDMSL
Chain of RAC-alpha serine/threonine-protein kinase (Homo sapiens) (P31749 whole entry): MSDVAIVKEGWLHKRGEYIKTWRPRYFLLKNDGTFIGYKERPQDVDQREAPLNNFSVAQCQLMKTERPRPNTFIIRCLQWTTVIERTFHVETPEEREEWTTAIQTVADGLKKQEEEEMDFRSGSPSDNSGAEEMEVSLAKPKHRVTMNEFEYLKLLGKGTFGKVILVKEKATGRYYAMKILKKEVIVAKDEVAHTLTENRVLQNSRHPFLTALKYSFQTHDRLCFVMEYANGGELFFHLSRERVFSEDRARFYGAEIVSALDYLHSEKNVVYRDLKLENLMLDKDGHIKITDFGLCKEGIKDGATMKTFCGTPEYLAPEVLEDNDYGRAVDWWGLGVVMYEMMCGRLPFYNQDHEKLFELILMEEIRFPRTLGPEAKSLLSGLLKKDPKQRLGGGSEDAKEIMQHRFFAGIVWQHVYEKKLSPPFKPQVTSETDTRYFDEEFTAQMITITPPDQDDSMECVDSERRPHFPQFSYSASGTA
Chain of Glycogen synthase kinase-3 beta (Homo sapiens) (P49841 whole entry, looked up): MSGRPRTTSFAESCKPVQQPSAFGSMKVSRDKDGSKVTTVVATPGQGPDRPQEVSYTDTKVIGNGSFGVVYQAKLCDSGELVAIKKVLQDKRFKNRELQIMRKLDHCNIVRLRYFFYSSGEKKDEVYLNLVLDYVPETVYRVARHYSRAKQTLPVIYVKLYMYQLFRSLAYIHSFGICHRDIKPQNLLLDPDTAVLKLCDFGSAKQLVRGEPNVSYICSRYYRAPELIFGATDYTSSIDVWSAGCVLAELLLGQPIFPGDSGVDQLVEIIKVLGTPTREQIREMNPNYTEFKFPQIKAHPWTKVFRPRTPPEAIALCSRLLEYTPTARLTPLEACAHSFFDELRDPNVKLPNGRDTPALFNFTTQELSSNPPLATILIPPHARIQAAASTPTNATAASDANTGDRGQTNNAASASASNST
Chain of Homeodomain-interacting protein kinase 1 (Homo sapiens) (Q86Z02 whole entry, looked up): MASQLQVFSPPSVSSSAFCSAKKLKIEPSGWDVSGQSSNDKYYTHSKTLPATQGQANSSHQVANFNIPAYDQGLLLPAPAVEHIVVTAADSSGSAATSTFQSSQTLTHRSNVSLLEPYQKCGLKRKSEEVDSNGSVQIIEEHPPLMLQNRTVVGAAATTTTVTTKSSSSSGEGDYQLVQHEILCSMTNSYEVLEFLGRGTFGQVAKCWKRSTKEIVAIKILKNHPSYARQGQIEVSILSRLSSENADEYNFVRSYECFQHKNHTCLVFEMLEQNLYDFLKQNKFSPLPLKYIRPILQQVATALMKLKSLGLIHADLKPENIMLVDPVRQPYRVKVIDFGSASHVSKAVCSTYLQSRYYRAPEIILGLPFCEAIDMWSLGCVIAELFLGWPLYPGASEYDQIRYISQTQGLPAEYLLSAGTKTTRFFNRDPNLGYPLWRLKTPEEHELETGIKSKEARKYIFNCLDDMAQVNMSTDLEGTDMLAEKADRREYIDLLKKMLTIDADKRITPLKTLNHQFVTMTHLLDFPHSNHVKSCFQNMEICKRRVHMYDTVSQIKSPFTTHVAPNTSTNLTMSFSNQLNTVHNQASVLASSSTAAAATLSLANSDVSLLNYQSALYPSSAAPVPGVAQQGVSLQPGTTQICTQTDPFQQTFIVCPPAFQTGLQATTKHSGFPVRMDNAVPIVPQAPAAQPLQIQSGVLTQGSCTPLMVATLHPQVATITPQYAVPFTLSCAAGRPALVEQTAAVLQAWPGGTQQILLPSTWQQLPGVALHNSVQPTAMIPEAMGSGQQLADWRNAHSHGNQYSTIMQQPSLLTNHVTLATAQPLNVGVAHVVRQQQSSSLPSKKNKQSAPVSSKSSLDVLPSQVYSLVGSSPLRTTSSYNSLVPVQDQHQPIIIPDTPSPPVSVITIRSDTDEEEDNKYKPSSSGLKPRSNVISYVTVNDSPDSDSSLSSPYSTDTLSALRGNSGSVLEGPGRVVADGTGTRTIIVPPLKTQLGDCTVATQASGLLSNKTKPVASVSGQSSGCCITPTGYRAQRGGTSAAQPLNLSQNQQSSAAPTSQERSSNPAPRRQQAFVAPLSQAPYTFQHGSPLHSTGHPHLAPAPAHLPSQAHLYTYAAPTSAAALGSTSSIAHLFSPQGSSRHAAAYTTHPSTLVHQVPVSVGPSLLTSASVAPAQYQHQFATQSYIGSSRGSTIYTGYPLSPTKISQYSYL

Row | inhibition [1] | inhibition (Homo sapiens) | inhibition [2] | inhibition [3] | inhibition [4] | inhibition [5] | inhibition [6] | inhibition [7] | inhibition [8] | inhibition [9] | inhibition [10] | inhibition [11] | inhibition [12] | SMILES | inhibition [13] | Activity (SH-SY5Y [14]) | Activity (SH-SY5Y [15])
1 | inactive | inactive | inactive | inactive | inactive | inactive | inactive | inactive | inactive | inactive | inactive | inactive | inactive | Clc1cccc(CSc2ncnc3[nH]cnc23)c1 | Active | Active | inactive
2 | inactive | inactive | inactive | inactive | inactive | inactive | inactive | inactive | inactive | inactive | inactive | inactive | inactive | c1ccc(CSc2ncnc3[nH]cnc23)cc1 | Active | Active | inactive

Row | SMILES | inhibition [1] | inhibition (Homo sapiens) | inhibition [2] | inhibition [3] | inhibition [4] | inhibition [5] | inhibition [6] | inhibition [7] | inhibition [8] | inhibition [9] | inhibition [10] | inhibition [11] | inhibition [12] | inhibition [13] | Activity (SH-SY5Y [14]) | Activity (SH-SY5Y [15])
3 | Brc1ccccc1CSc1ncnc2[nH]cnc12 | inactive | inactive | inactive | inactive | inactive | inactive | inactive | inactive | inactive | inactive | inactive | inactive | inactive | Active | Active | inactive
